Reference: PubChem BioAssay AID1259407 (Chemical Carcinogenesis Research Information System (CCRIS), 2018)
Calls of active or inactive are those of the source. No rule for the calls is given here.

Tested on: CCRIS mutagenicity, Ames/micronucleus/aberration tests
Test: CCRIS mutagenicity studies
[1] = Test System: AMES SALMONELLA TYPHIMURIUM, Strain/Indicator: TA97, Metabolic Activation: NONE, Method: PREINCUBATION
[2] = Test System: AMES SALMONELLA TYPHIMURIUM, Strain/Indicator: TA98, Metabolic Activation: NONE, Method: STANDARD PLATE
[3] = Test System: AMES SALMONELLA TYPHIMURIUM, Strain/Indicator: TA100, Metabolic Activation: NONE, Method: STANDARD PLATE
[4] = Test System: AMES SALMONELLA TYPHIMURIUM, Strain/Indicator: TA100, Metabolic Activation: RAT, LIVER, S-9, AROCLOR 1254, Method: STANDARD PLATE

Measured: mutagenic call

CCCC(=O)OC1CCCCC1
inactive: [1] inactive; negative | Test System: AMES SALMONELLA TYPHIMURIUM, Strain/Indicator: TA97, Metabolic Activation: RAT, LIVER, S-9, AROCLOR 1254, Method: PREINCUBATION inactive; negative | Test System: AMES SALMONELLA TYPHIMURIUM, Strain/Indicator: TA102, Metabolic Activation: NONE, Method: PREINCUBATION inactive; negative | Test System: AMES SALMONELLA TYPHIMURIUM, Strain/Indicator: TA102, Metabolic Activation: RAT, LIVER, S-9, AROCLOR 1254, Method: PREINCUBATION inactive; negative

Cc1cc(Cl)ccc1OCC(=O)O
inactive: Test System: AMES SALMONELLA TYPHIMURIUM, Strain/Indicator: TA97, Metabolic Activation: NONE, Method: STANDARD PLATE inactive; negative | Test System: AMES SALMONELLA TYPHIMURIUM, Strain/Indicator: TA97, Metabolic Activation: RAT, LIVER, S-9, AROCLOR 1254, Method: STANDARD PLATE inactive; negative | Test System: AMES SALMONELLA TYPHIMURIUM, Strain/Indicator: TA97A, Metabolic Activation: NONE, Method: STANDARD PLATE inactive; negative | Test System: AMES SALMONELLA TYPHIMURIUM, Strain/Indicator: TA97A, Metabolic Activation: RAT, LIVER, S-9, AROCLOR 1254, Method: STANDARD PLATE inactive; negative | [2] inactive; negative | Test System: AMES SALMONELLA TYPHIMURIUM, Strain/Indicator: TA98, Metabolic Activation: RAT, LIVER, S-9, AROCLOR 1254, Method: STANDARD PLATE inactive; negative | [3] inactive; negative | [4] inactive; negative | Test System: AMES SALMONELLA TYPHIMURIUM, Strain/Indicator: TA102, Metabolic Activation: NONE, Method: STANDARD PLATE inactive; negative | Test System: AMES SALMONELLA TYPHIMURIUM, Strain/Indicator: TA102, Metabolic Activation: RAT, LIVER, S-9, AROCLOR 1254, Method: STANDARD PLATE inactive; negative | Test System: AMES SALMONELLA TYPHIMURIUM, Strain/Indicator: TA1535, Metabolic Activation: NONE, Method: STANDARD PLATE inactive; negative | Test System: AMES SALMONELLA TYPHIMURIUM, Strain/Indicator: TA1535, Metabolic Activation: RAT, LIVER, S-9, AROCLOR 1254, Method: STANDARD PLATE inactive; negative | Test System: AMES SALMONELLA TYPHIMURIUM, Strain/Indicator: TA1537, Metabolic Activation: NONE, Method: STANDARD PLATE inactive; negative | Test System: AMES SALMONELLA TYPHIMURIUM, Strain/Indicator: TA1537, Metabolic Activation: RAT, LIVER, S-9, AROCLOR 1254, Method: STANDARD PLATE inactive; negative | Test System: AMES SALMONELLA TYPHIMURIUM, Strain/Indicator: TA1538, Metabolic Activation: NONE, Method: STANDARD PLATE inactive; negative | Test System: AMES SALMONELLA TYPHIMURIUM, Strain/Indicator: TA1538, Metabolic Activation: RAT, LIVER, S-9, AROCLOR 1254, Method: STANDARD PLATE inactive; negative

O=S(=O)(O)NC1CCCCC1
inactive: Test System: CHINESE HAMSTER OVARY, Strain/Indicator: CHO-K1-BH4 (HGPRT), Metabolic Activation: NONE, Method: STANDARD PLATE inactive; negative | Test System: CHINESE HAMSTER OVARY, Strain/Indicator: CHO-K1-BH4 (HGPRT), Metabolic Activation: RAT, LIVER, S-9, Method: STANDARD PLATE inactive; negative | Test System: UDS RODENT HEPATOCYTES, Strain/Indicator: THY INCORP (NON-S-PHASE), Metabolic Activation: NONE, Method: AUTORADIOGRAPHY inactive; negative

Fc1c(F)c(F)c2ncccc2c1F
active: Test System: AMES SALMONELLA TYPHIMURIUM, Strain/Indicator: TA100, Metabolic Activation: RAT LIVER S-9, PHENOBARBITAL AND 5,6-BENZOFLAVONE, Method: PREINCUBATION active; positive

COc1ccc2c3c1O[C@H]1[C@@H](O)C=C[C@H]4[C@@H](C2)N(C)CC[C@@]341
inactive: Test System: AMES SALMONELLA TYPHIMURIUM, Strain/Indicator: TA97, Metabolic Activation: HAMSTER, LIVER, S-9, AROCLOR 1254 (10 OR 30%), Method: PREINCUBATION inactive; negative | [1] inactive; negative | Test System: AMES SALMONELLA TYPHIMURIUM, Strain/Indicator: TA97, Metabolic Activation: RAT, LIVER, S-9, AROCLOR 1254 (10 OR 30%), Method: PREINCUBATION inactive; negative | Test System: AMES SALMONELLA TYPHIMURIUM, Strain/Indicator: TA98, Metabolic Activation: HAMSTER, LIVER, S-9, AROCLOR 1254 (10 OR 30%), Method: PREINCUBATION inactive; negative | Test System: AMES SALMONELLA TYPHIMURIUM, Strain/Indicator: TA98, Metabolic Activation: NONE, Method: PREINCUBATION inactive; negative | Test System: AMES SALMONELLA TYPHIMURIUM, Strain/Indicator: TA98, Metabolic Activation: RAT, LIVER, S-9, AROCLOR 1254 (10 OR 30%), Method: PREINCUBATION inactive; negative | Test System: AMES SALMONELLA TYPHIMURIUM, Strain/Indicator: TA100, Metabolic Activation: HAMSTER, LIVER, S-9, AROCLOR 1254 (10 OR 30%), Method: PREINCUBATION inactive; negative | Test System: AMES SALMONELLA TYPHIMURIUM, Strain/Indicator: TA100, Metabolic Activation: NONE, Method: PREINCUBATION inactive; negative | Test System: AMES SALMONELLA TYPHIMURIUM, Strain/Indicator: TA100, Metabolic Activation: RAT, LIVER, S-9, AROCLOR 1254 (10 OR 30%), Method: PREINCUBATION inactive; negative | Test System: AMES SALMONELLA TYPHIMURIUM, Strain/Indicator: TA1535, Metabolic Activation: HAMSTER, LIVER, S-9, AROCLOR 1254 (10 OR 30%), Method: PREINCUBATION inactive; negative | Test System: AMES SALMONELLA TYPHIMURIUM, Strain/Indicator: TA1535, Metabolic Activation: NONE, Method: PREINCUBATION inactive; negative | Test System: AMES SALMONELLA TYPHIMURIUM, Strain/Indicator: TA1535, Metabolic Activation: RAT, LIVER, S-9, AROCLOR 1254 (10 OR 30%), Method: PREINCUBATION inactive; negative

N#Cc1cccc(/C=C\c2ccc([N+](=O)[O-])cc2)c1
inactive: Test System: AMES SALMONELLA TYPHIMURIUM, Strain/Indicator: TA100 (NR), Metabolic Activation: NONE, Method: STANDARD PLATE inactive; negative | Test System: AMES SALMONELLA TYPHIMURIUM, Strain/Indicator: TA100 (NR), Metabolic Activation: S-9, Method: STANDARD PLATE inactive; negative
active: Test System: AMES SALMONELLA TYPHIMURIUM, Strain/Indicator: TA98(NR), Metabolic Activation: NONE, Method: STANDARD PLATE active; positive | Test System: AMES SALMONELLA TYPHIMURIUM, Strain/Indicator: TA98 (NR), Metabolic Activation: S-9, Method: STANDARD PLATE active; positive | [2] active; positive | Test System: AMES SALMONELLA TYPHIMURIUM, Strain/Indicator: TA98, Metabolic Activation: S-9, Method: STANDARD PLATE active; positive | [3] active; positive | Test System: AMES SALMONELLA TYPHIMURIUM, Strain/Indicator: TA100, Metabolic Activation: S-9, Method: STANDARD PLATE active; positive

Cc1cc2cccc3ccc4c5ccccc5cc1c4c32
active: Test System: AMES SALMONELLA TYPHIMURIUM, Strain/Indicator: TA100, Metabolic Activation: RAT, NADPH-FORTIFIED HOMOGENIZED HEPATOCYTES, AROCLOR 1254, Method: PREINCUBATION active; positive

CC1CCC(NC(=O)N(CCCl)N=O)CC1 (stereo not given)
active: Test System: AMES SALMONELLA TYPHIMURIUM, Strain/Indicator: G46, Metabolic Activation: NONE active; positive | [3] active; positive | [4] active; positive | Test System: AMES SALMONELLA TYPHIMURIUM, Strain/Indicator: TA1535, Metabolic Activation: NONE active; positive

CN=c1ccc2nc3ccc(N)cc3sc-2c1
active: Test System: Ames Salmonella typhimurium, Strain/Indicator: TA98, Metabolic Activation: None, Method: Preincubation active; positive | Test System: Ames Salmonella typhimurium, Strain/Indicator: TA98, Metabolic Activation: Rat, Liver, S-9, Aroclor 1254 (10%), Method: Preincubation active; positive | Test System: Ames Salmonella typhimurium, Strain/Indicator: TA100, Metabolic Activation: None, Method: Preincubation active; positive | Test System: Ames Salmonella typhimurium, Strain/Indicator: TA100, Metabolic Activation: Rat, Liver, S-9, Aroclor 1254 (10%), Method: Preincubation active; positive | Test System: E. coli, Strain/Indicator: WPM uvrA/pKM101, Metabolic Activation: None, Method: Preincubation active; positive | Test System: E. coli, Strain/Indicator: WPM uvrA/pKM101, Metabolic Activation: Rat, Liver, S-9, Aroclor 1254 (10%), Method: Preincubation active; positive
